Assay results: patent US10738001B2, “Hydrofluoroolefins and methods of using same” (priority 2015, dated 2020)
Read-outs that look alike come from different tables or passages of the source.

Experiments:
[1] = Log KOW (octanol/water partition coefficient) by HPLC, OECD Method 117; type: physicochemical
Protocol: (§1) In these Examples, Log KOWs, (octanol/water partition coefficients), were determined by HPLC using the method described in OECD Method 117. Atmospheric lifetimes were experimentally determined using a relative rate method to determine the hydroxyl radical rate constant.

[2] = Atmospheric lifetime by relative rate method (hydroxyl radical rate constant); type: physicochemical
Protocol: as §1

[3] = system: rats; test: toxicity screening study in rats, 4 Hr Inhalation LC50

Row | Compound | Log KOW (octanol/water partition coefficient measured by HPLC) [1] | atmospheric lifetime [2] [years] | chromatographic logP [1] | Log KOW (octanol/water partition coefficient measured by HPLC) ([1]; HPLC, OECD Method 117, average value for the E/Z product mixtures of Examples 1-3) | 4 Hr Inhalation LC50 [3] | chromatographic logP ([1]; octanol/water, HPLC, OECD Method 117, average value for the E/Z product mixtures of Examples 1-3, read-out: Log KOW (octanol/water partition coefficient measured by HPLC))
1 | FC=C(F)N(C(F)(F)C(F)(F)F)C(F)(F)C(F)(F)C(F)(F)F [Example 8, N-(E&Z)-(1,2-difluorovinyl)-1,1,2,2,3,3,3-heptafluoro-N-(perfluoroethyl)propan-1-amine] | 4.97 | – | – | – | – | –
2 | F/C(=C\C(F)(F)F)N(C(F)(F)F)C(F)(F)F [Example 3, (E&Z)-1,3,3,3-tetrafluoro-N,N-bis(trifluoromethyl)prop-1-en-1-amine] | – | 1.3 | 4.12 | – | – | –
3 | FC(=CC(F)(F)F)N(C(F)(F)F)C(F)(F)C(F)(F)F [Example 1, (E&Z)-1,3,3,3-tetrafluoro-N-(1,1,2,2,2-pentafluoroethyl)-N-(trifluoromethyl)prop-1-en-1-amine] | – | – | – | 4.57 | – | –
4 | 4-(E&Z)-(1,2-difluorovinyl)-2,2,3,3,5,5,6,6-octafluoromorpholine [Example 4] | 4.31 | 0.078 | – | – | > 10,000 ppm | –
5 | C=C(F)N1C(F)(F)C(F)(F)OC(F)(F)C1(F)F [Example 6, 2,2,3,3,5,5,6,6-octafluoro-4-(1-fluorovinyl)morpholine] | – | 0.095 | – | – | > 10,000 ppm | 4.33
6 | FC(=CC(F)(F)F)N1C(F)(F)C(F)(F)OC(F)(F)C1(F)F [Example 2] | 4.80 | 0.89 | – | – | > 10,390 ppm | –
